Target: GRASP55 (Homo sapiens, UniProt Q9H8Y8)
Assay: CETSA (immunoblot quantification of non-denatured GRASP55)
Type: binding
Set-up: endogenous in cells; host or cells: HeLa wt cells
Conditions: 100 nM, 6 h, HeLa wt, vs DMSO
Method: Adherent cells were washed in the dish once with DPBS and harvested by Trypsin–EDTA (0.25%, Thermo Fisher Scientific, Waltham, MA, USA, #25,200,056) treatment. After addition of 35 mL DPBS, the cells were pelleted by centrifugation (300 rcf, 5 min, 4 °C), and washed twice by re-suspending and pelleting using 45 mL and 1 mL DPBS, respectively, to remove excess trypsin and for transfer into pre-weighed 2 mL Eppendorf tubes to determine the cell pellet wet weights as quality check after centrifugation (300 rcf, 5 min, 4 °C) and complete removal of the supernatant. […]
After temperature treatment, samples were supplemented with lysis buffer (final concentrations: 0.36 U/µL benzonase, 1.5 mM MgCl2, 1 mM Na3VO4, 10 mM NaF, 2.5 mM Na4P2O7, 0.8% w/v NP-40) for 1 h on ice. […] The total protein concentration of the resulting cell extracts containing the fraction of soluble, non-denatured proteins was determined (Pierce 660 nm Protein Assay, BSA as standard). […] The two (37 °C or 50 °C) x ten (concentrations) x three (replicates) = 60 TPP-CCR samples and two (treatment and control) x ten (temperatures) x three (replicates) = 60 TPP-TR samples were analyzed by LC–MS/MS. GRASP55 was additionally quantified from the TPP-TR samples by immunoblotting as described in the respective section. […]

## CCCCCC1=C/C(=C/c2[nH]c(-c3ccc[nH]3)cc2OC)N=C1C [Prodigiosin, prodigiosin]
  dif GRASP55 (CETSA), melting point difference: 4.5

From PMC10552397 (Cell Communication and Signaling : CCS, 2023)
